# No end group written: not given here.
# How the values were obtained:
# [1] = tested on: zebrafish embryos; conditions: in vivo
# [2] = target: T1, Aβ42 (Homo sapiens, UniProt P05067); assay: biochemical; format: binding
# [3] = target: T1, Aβ42; format: biochemical
# [4] = tested on: SH-SY5Y cells
# [5] = tested on: zebrafish embryos; conditions: in vivo; remark: listed apart in the source
# [6] = target: T1, Aβ42; assay: SEC-HPLC-UV of Aβ42 and Spike1058 co-aggregation; format: biochemical; conditions: molar ratio 1:2, 4 h, 37 °C, UV 220 nm, PBS pH 5.6
# [7] = target: T1, Aβ42; assay: CD spectroscopy; format: biochemical; conditions: co-incubation with Spike1058, dose-dependent, 48 h, 37 °C
# T1 sequence (P05067 672-713): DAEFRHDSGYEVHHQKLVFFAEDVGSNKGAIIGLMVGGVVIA
sequence,measurement,setting,value
HGVVFLHVTYV [Spike1058],hatching interference and mortality compared to control group,[1],pronounced hatching interference and mortality
same,hatching rate in comparison to Aβ or Spike1058 alone,[1],significantly decreased
same,influence on hatching and mortality rate relative to Aβ,[1],more substantial influence than Aβ
same,survival rate in comparison to Aβ or Spike1058 alone,[1],significantly decreased
same,Kd,[2],82.6 nM
same,increase of Aβ's β-sheet content by co-incubation,[3],7-33%
same,cell mortality,[4],elevated in a dose-dependent manner
same,cell mortality vs Aβ control,[4],less deleterious than Aβ control
same,number of viable SH-SY5Y cells at increasing Spike:Aβ molar ratios,[4],gradual decline in number
same,"impact on cell viability, less than Aβ control",[4]; 25 µM,11%
same,viable SH-SY5Y cells compared with Aβ control group,[4]; 24 h,22%
same,"generation of biotic ROS, surpassing levels with Aβ or Spike1058 alone",[5],significant increase
same,decrease of amount of Spike1058 in mixed Aβ-Spike1058 sample,[6],39.54%
same,increase of β-sheet content of Aβ by co-incubation (CD),[7],16-35%

# Source: publication PMC10480042 (ACS applied materials & interfaces, 2023)
